Reference: patent publication US8263736B2, “Compounds and their effects on feeding behaviour” (Imperial Innovations Limited, priority 2006, dated 2012)

Tests used:
Male C57BL/6 mice [1] = assay: Food intake in fasted mice after a single intraperitoneal injection (Example 1, 3 different PYY analogues); format: in vivo; details: single i.p. injection
Description: (§1) Male C57BL/6 mice (20-30 g) were used for all mouse experiments. Mice were individually housed in IVC cages. Animals were randomised by weight and fasted overnight for 16 hrs before intraperitoneal injection at 9 am. Food intake was measured at 1, 2, 3, 4, 6, 8 and 24 hours post injection. All peptide solutions were prepared freshly the morning of the study and injected as 100 ul. All statistics are calculated using a one-way ANOVA with Dunnett's post-test or one-way ANOVA with Bonferroni post-test.
(§2) A control of saline was used.

Male C57BL/6 mice [2] = assay: Food intake in fasted mice, dose response experiment for PYY3-36Lys12Lauryl (Example 2); format: in vivo
Description: as §1, §2

PYY3-36Lys12Lauryl: PYY3-36 with the residue at position 12 replaced with a lysine residue coupled to a lauroyl group, SEQ ID NO: 14
overall reduction in cumulative food intake versus saline control (Male C57BL/6 mice [1]; 120 nmol/kg, 24 hour period, fasted mice): 6.1%
persistence of effect on food intake compared with saline, PYY3-36 (30 nmol/kg) and PYY3-36Lys12 (60 and 120 nmol/kg) (Male C57BL/6 mice [1]): most sustained effect
onset of food intake reduction compared with 60 nmol/kg native PYY3-36 (Male C57BL/6 mice [2]; 240 nmol/kg, mice): slower onset of food intake reduction
persistence of food intake reduction compared with 60 nmol/kg native PYY3-36 (Male C57BL/6 mice [2]; 240 nmol/kg, mice): greater persistence of effect
food consumed in the first, second and third hour: relation to dose (Male C57BL/6 mice [2]; 60, 120 and 240 nmol/kg, single i.p. injection, 240 greater effect than 120, both greater than 60 nmol/kg): does-response relationship
time at which food intake (in a given time period) becomes greater than in saline control mice (Male C57BL/6 mice [2]; single i.p. injection, PYY3-36Lys12Lauryl 60, 120, 240 nmol/kg, PYY3-36 30 nmol/kg, FIG. 5): around 6 hours
